Experimental data reported in patent US20130245029A1, “TREATMENT OF CANCER WITH TOR KINASE INHIBITORS” (SIGNAL PHARMACEUTICALS, LLC, priority 2012, published 2013).

What was measured:
[1] = test system: ETS overexpressing Ewing sarcoma cell lines; test: Soft agar colony formation (clonogenic growth inhibition); assay type: cell-based; conditions: 3 weeks in culture, ETS positive versus ETS negative cell lines, FIG. 1
Protocol: FIG. 1 provides a clonogenic growth inhibition assay for Compound 1 with ETS positive and ETS negative cell lines. […] Soft Agar Colony Formation. A solid layer of 1% agarose is used to coat each well of a 96-well plate. After allowing two hours to cool, five hundred Ewing's cells are suspended in a 33% agarose (10% solution), 33% media with 2×FBS and 33% cell suspension in quadruplicate wells of a 96-well plate. Cells are treated with or without TOR kinase inhibitor in an upper layer of media. Every three days, the media is exchanged for fresh TOR kinase inhibitor containing media. After 3-weeks in culture, images are taken on a 10× objective lens and colonies are counted for each condition.

[2] = test system: Ewing's sarcoma cell lines (ETS positive cells); test: DNA damage COMET assay; assay type: cell-based; conditions: 48 hours treatment, FIG. 2
Source text: DNA Damage Assays: COMET Assay.

## CCN1C(=O)CNc2ncc(-c3ccc(-c4nc[nH]n4)nc3C)nc21 [Compound 1, 1-ethyl-7-(2-methyl-6-(1H-1,2,4-triazol-3-yl)pyridin-3-yl)-3,4-dihydropyrazino[2,3-b]pyrazin-2(1H)-one]
[1]
  sensitivity of colony formation to inhibition: more sensitive
[2]
  DNA damage (COMET tail moments): potentiates DNA damage
